In one assay the test system is Del19/T790M/C797S EGFR. The experiment in a line: EGFR degradation HTRF assay in H1975-clone #28 (DTC) cells. It counts as cell-based. To be noted: H1975 # 28 DTC (Del19/T790M/C797S), 16h treatment; for DC50: HTRF; for Dmax (%): maximum percentage of degradation. The method, boiled down:
(§1)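 H1975 clones stably overexpressing mutant EGFR by lentivirus, with endogenous EGFR knocked out by sgRNA and homozygosity confirmed by sequencing, were treated 16 h at 37 °C with compounds in 0.2% DMSO medium, 8 doses from 10 uM in 5-fold dilution. Lysates were read by HTRF (665/620 nm); DC50 came from a four-parameter fit.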
In general terms: In TR-FRET formats the signal depends on donor and acceptor labels being close together.

The next assay has as its target T1, L858R/T790M/C797S EGFR (Homo sapiens, UniProt P00533, C797S/L858R/T790M).
T1 construct: expressed in transfected cells; host or cells: H1975 clone #25 (lentiviral over-expression, endogenous EGFR knocked out by sgRNA)
The assay is described as follows: EGFR degradation HTRF assay in H1975-clone #25 (LTC) cells. To be noted: 16h treatment; for DC50: H1975 # 25-LTC (L858R/T790M/C797S), HTRF; for Dmax: NCI-H1975, H1975 # 25-LTC (L858R/T790M/C797S), maximum percentage of degradation. It counts as cell-based. In short, it runs like this: as §1

T1 sequence (P00533 25-1210 T790M/C797S/L858R): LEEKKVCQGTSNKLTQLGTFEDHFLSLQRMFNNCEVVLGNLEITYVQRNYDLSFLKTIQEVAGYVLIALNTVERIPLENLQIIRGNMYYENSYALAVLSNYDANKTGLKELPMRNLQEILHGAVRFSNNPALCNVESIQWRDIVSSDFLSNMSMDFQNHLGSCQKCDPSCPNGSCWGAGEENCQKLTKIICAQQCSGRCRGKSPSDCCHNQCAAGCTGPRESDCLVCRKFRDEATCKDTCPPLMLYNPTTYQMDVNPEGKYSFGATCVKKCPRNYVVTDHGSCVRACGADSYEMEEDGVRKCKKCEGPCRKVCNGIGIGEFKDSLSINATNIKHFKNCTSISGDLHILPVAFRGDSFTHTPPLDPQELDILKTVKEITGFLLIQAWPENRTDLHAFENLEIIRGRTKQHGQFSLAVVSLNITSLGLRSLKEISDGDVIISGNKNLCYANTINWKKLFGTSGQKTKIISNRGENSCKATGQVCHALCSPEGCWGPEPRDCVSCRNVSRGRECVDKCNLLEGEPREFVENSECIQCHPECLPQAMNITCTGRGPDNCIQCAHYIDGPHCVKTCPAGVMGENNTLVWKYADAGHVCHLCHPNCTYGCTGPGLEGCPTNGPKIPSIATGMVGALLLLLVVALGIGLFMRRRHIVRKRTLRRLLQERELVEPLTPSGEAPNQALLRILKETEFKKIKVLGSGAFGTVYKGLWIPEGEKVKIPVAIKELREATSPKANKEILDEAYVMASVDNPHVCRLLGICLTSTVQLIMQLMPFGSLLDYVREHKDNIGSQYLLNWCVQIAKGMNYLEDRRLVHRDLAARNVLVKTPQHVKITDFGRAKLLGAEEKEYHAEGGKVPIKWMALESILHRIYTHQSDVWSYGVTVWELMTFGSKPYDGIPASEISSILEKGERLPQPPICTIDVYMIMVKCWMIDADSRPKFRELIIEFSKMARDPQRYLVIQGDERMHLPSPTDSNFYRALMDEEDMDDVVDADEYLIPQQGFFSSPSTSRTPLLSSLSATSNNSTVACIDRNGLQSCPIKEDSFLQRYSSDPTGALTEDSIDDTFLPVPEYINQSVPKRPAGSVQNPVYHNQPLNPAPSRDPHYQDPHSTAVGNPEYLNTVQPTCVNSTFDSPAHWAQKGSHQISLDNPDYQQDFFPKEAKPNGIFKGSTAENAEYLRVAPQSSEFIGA

Regarding `Cc1cc2cc(n1)-c1cnn(C)c1OCCC[C@@H](C)CN1/C(=N/C2=O)Nc2ccc(C(=O)N[C@H](C)C3CCN(CCc4cc(F)c([C@H]5CCC(=O)NC5=O)c(F)c4)CC3)cc21` [Example 271, (R,E)-N—((R)-1-(1-(4-((R)-2,6-dioxopiperidin-3-yl)-3,5-difluorophenethyl)piperidin-4-yl)ethyl)-1^1,2^6,7-trimethyl-3-oxo-5^2,5^3-dihydro-1^1H,5^1H-11-oxa-4-aza-5(2,1)-benzo[d]imidazola-2(2,4)-pyridina-1(4,5)-pyrazolacycloundecaphane-5^6-carboxamide], in the assay with Del19/T790M/C797S EGFR, half-maximal degradation (DC50) was put at 1.15 nM and the “Dmax (%)” value is 70.36%. At L858R/T790M/C797S EGFR, this compound registered a DC50 of 0.557 nM and a Dmax of 81.2%.
As to `Cc1cc2cc(n1)-c1cnn(C)c1OCC[C@@H]1C[C@H]1CN1/C(=N/C2=O)Nc2ccc(N3CCN(C4CCN(c5cnc(C6CCC(=O)NC6=O)cc5C)CC4)CC3)cc21` (some centres unmarked) [Example 470, 3-(5-(4-(4-((7^1R,7^2S,E)-1^1,2^6-dimethyl-3-oxo-5^2,5^3-dihydro-1^1H,5^1H-10-oxa-4-aza-5(2,1)-benzo[d]imidazola-2(2,4)-pyridina-1(4,5)-pyrazola-7(1,2)-cyclopropanacyclodecaphane-5^6-yl)piperazin-1-yl)piperidin-1-yl)-4-methylpyridin-2-yl)piperidine-2,6-dione], in the assay with Del19/T790M/C797S EGFR, it took 0.617 nM to reach half-maximal degradation (DC50) and the “Dmax (%)” value is listed as 86.76%. Moreover, on L858R/T790M/C797S EGFR, the DC50 is 0.849 nM and the Dmax came out at 92.1%.
On to `Cc1cc2cc(n1)-c1cnn(C)c1OCC[C@H]1C[C@@H]1CN1/C(=N/C2=O)Nc2ccc(N3CCN(C4CCN(c5cnc(C6CCC(=O)NC6=O)cc5C)CC4)CC3)cc21` (stereo partly drawn) [Example 463, 3-(5-(4-(4-((7'S,7^2R,E)-1^1,2^6-dimethyl-3-oxo-5^2,5^3-dihydro-1^1H,5^1H-10-oxa-4-aza-5(2,1)-benzo[d]imidazola-2(2,4)-pyridina-1(4,5)-pyrazola-7(1,2)-cyclopropanacyclodecaphane-5^6-yl)piperazin-1-yl)piperidin-1-yl)-4-methylpyridin-2-yl)piperidine-2,6-dione], for which, in the assay with Del19/T790M/C797S EGFR, it took 0.604 nM to reach half-maximal degradation (DC50) and the “Dmax (%)” value was 90.22%. Besides, at L858R/T790M/C797S EGFR, it took 0.624 nM to reach half-maximal degradation (DC50) and the Dmax stood at 91.8%.
`Cc1cc2cc(n1)-c1cnn(C)c1OCCC[C@@H](C)CN1/C(=N/C2=O)Nc2ccc(C(=O)N(C)[C@@H]3CCN(CCNc4cc(F)c([C@H]5CCC(=O)NC5=O)c(F)c4)C[C@@H]3F)cc21` [Example 350, (R,E)-N—((3S,4R)-1-(2-((4-((R)-2,6-dioxopiperidin-3-yl)-3,5-difluorophenyl)amino)ethyl)-3-fluoropiperidin-4-yl)-N,1^1,2^6,7-tetramethyl-3-oxo-5^2,5^3-dihydro-1^1H,5^1H-11-oxa-4-aza-5(2,1)-benzo[d]imidazola-2(2,4)-pyridina-1(4,5)-pyrazolacycloundecaphane-5^6-carboxamide]: in the assay on Del19/T790M/C797S EGFR, the 50% degradation concentration (DC50) worked out at 0.662 nM and the “Dmax (%)” value is 86.74%. At L858R/T790M/C797S EGFR, the DC50 came to 0.614 nM and the Dmax is 90.4%.
In the case of `Cc1cc2cc(n1)-c1cnn(C)c1OCCC[C@@H](C)CN1/C(=N/C2=O)Nc2ccc(C(=O)N(C)C3CCN(CCc4cc(F)c([C@H]5CCC(=O)NC5=O)c(F)c4)CC3(C)C)cc21` (stereo partly drawn) [Example 439, (R,E)-N—((S)-1-(4-((R)-2,6-dioxopiperidin-3-yl)-3,5-difluorophenethyl)-3,3-dimethylpiperidin-4-yl)-N,1^1,2^6,7-tetramethyl-3-oxo-5^2,5^3-dihydro-1^1H,5^1H-11-oxa-4-aza-5(2,1)-benzo[d]imidazola-2(2,4)-pyridina-1(4,5)-pyrazolacycloundecaphane-5^6-carboxamide], in the assay with Del19/T790M/C797S EGFR, it took 1.52 nM to reach half-maximal degradation (DC50) and the “Dmax (%)” value came to 76.03%. Moreover, on L858R/T790M/C797S EGFR, the DC50 was 1.4 nM and the Dmax is 87.3%.

By DC50 is commonly meant the concentration giving 50% degradation. A low value points to a more potent degrader. Usually Dmax stands for the greatest extent of degradation seen. Low values mean a partial loss of target, high ones a fuller loss of target.

The values are drawn from US20240342292A1, “Compounds for the Degradation of EGFR Kinase” (BeiGene Switzerland GmbH, priority 2021, published 2024).
